In paper PMC9820118, “Betulin Acid Ester Derivatives Inhibit Cancer Cell Growth by Inducing Apoptosis through Caspase Cascade Activation: A Comprehensive In Vitro and In Silico Study” (International Journal of Molecular Sciences, 2022):

tested on: MV4-11 cells; assay: Antiproliferative activity, MTT assay, MV4-11 leukemia cells; format: cell-based, human; conditions: 72 h incubation, MTT; read-out: Growth inhibition IC50, leukemia cell line MV4-11

SMILES	IC50 [µM]
C=C(C)C1CCC2(COC(=O)C=C(C)C(=O)N3CCOCC3)CCC3(C)C(CCC4C5(C)CCC(O)C(C)(C)C5CCC43C)C12 (stereo not shown) [3b]	8.9
C=C(C)[C@@H]1CC[C@]2(COC(=O)CCCC(=O)N3CCOCC3)CC[C@]3(C)C(CCC4[C@@]5(C)CC[C@H](O)C(C)(C)C5CC[C@]43C)C12 (stereo partly shown) [4b]	6.27
C=C(C)[C@@H]1CC[C@]2(COC(=O)CCCC(=O)N3CCSCC3)CC[C@]3(C)C(CCC4[C@@]5(C)CC[C@H](O)C(C)(C)C5CC[C@]43C)C12 (stereo partly shown) [4d]	7.04
N.N.[Cl][Pt][Cl] [Cisplatin, cisplatin, reference compound]	1.83

same assay, conditions: Homo sapiens, MV4-11, 72 h, 72 h incubation, MTT; read-out: Growth inhibition IC50, leukemia cell line MV4-11

SMILES	IC50 [µM]
C#CCNC(=O)CCC(=O)OC[C@]12CC[C@@H](C(=C)C)C1C1CCC3[C@@]4(C)CC[C@H](O)C(C)(C)C4CC[C@@]3(C)[C@]1(C)CC2 (stereo partly shown) [2a]	2.03
C#CC1(NC(=O)CCC(=O)OC[C@]23CC[C@@H](C(=C)C)C2C2CCC4[C@@]5(C)CC[C@H](O)C(C)(C)C5CC[C@@]4(C)[C@]2(C)CC3)CCCCC1 (stereo partly shown) [2e]	52.5
C#CCNC(=O)C(C)=CC(=O)OCC12CCC(C(=C)C)C1C1CCC3C4(C)CCC(O)C(C)(C)C4CCC3(C)C1(C)CC2 (stereo not shown) [3a]	12.5
C=C(C)C1CCC2(COC(=O)C=C(C)C(=O)N3CCOCC3)CCC3(C)C(CCC4C5(C)CCC(O)C(C)(C)C5CCC43C)C12 (stereo not shown) [3b]	< 10
C#CC1(NC(=O)C(C)=CC(=O)OCC23CCC(C(=C)C)C2C2CCC4C5(C)CCC(O)C(C)(C)C5CCC4(C)C2(C)CC3)CCCCC1 (stereo not shown) [3e]	22.2
C=C(C)[C@@H]1CC[C@]2(COC(=O)CCCC(=O)N3CCOCC3)CC[C@]3(C)C(CCC4[C@@]5(C)CC[C@H](O)C(C)(C)C5CC[C@]43C)C12 (stereo partly shown) [4b]	< 10
C=C(C)[C@@H]1CC[C@]2(COC(=O)CCCC(=O)N3CCSCC3)CC[C@]3(C)C(CCC4[C@@]5(C)CC[C@H](O)C(C)(C)C5CC[C@]43C)C12 (stereo partly shown) [4d]	< 10

same assay, conditions: IC50 BALB/3T3 / IC50 MV4-11

SMILES	Calculated Selectivity Index SI, MV4-11
C#CCNC(=O)CCC(=O)OC[C@]12CC[C@@H](C(=C)C)C1C1CCC3[C@@]4(C)CC[C@H](O)C(C)(C)C4CC[C@@]3(C)[C@]1(C)CC2 (stereo partly shown) [2a]	1.5
C=C(C)C1CCC2(COC(=O)C=C(C)C(=O)N3CCOCC3)CCC3(C)C(CCC4C5(C)CCC(O)C(C)(C)C5CCC43C)C12 (stereo not shown) [3b]	2.8
C=C(C)[C@@H]1CC[C@]2(COC(=O)CCCC(=O)N3CCOCC3)CC[C@]3(C)C(CCC4[C@@]5(C)CC[C@H](O)C(C)(C)C5CC[C@]43C)C12 (stereo partly shown) [4b]	5.9
C=C(C)[C@@H]1CC[C@]2(COC(=O)CCCC(=O)N3CCSCC3)CC[C@]3(C)C(CCC4[C@@]5(C)CC[C@H](O)C(C)(C)C5CC[C@]43C)C12 (stereo partly shown) [4d]	7.1

tested on: not listed separately; assay: in vitro; conditions: mouse

SMILES	IC50 at 72 h [µM]
C#CCNC(=O)CCC(=O)OC[C@]12CC[C@@H](C(=C)C)C1C1CCC3[C@@]4(C)CC[C@H](O)C(C)(C)C4CC[C@@]3(C)[C@]1(C)CC2 (stereo partly shown) [2a]	3.1
C=C(C)C1CCC2(COC(=O)C=C(C)C(=O)N3CCOCC3)CCC3(C)C(CCC4C5(C)CCC(O)C(C)(C)C5CCC43C)C12 (stereo not shown) [3b]	24.7
C=C(C)[C@@H]1CC[C@]2(COC(=O)CCCC(=O)N3CCOCC3)CC[C@]3(C)C(CCC4[C@@]5(C)CC[C@H](O)C(C)(C)C5CC[C@]43C)C12 (stereo partly shown) [4b]	36.8
C=C(C)[C@@H]1CC[C@]2(COC(=O)CCCC(=O)N3CCSCC3)CC[C@]3(C)C(CCC4[C@@]5(C)CC[C@H](O)C(C)(C)C5CC[C@]43C)C12 (stereo partly shown) [4d]	> 50

tested on: not listed separately; assay: Experimental lipophilicity by RP-TLC; conditions: RP-TLC, RP-18 F254S, acetone / Tris buffer pH 7.4, extrapolated to zero acetone

SMILES	RM0
C#CCNC(=O)CCC(=O)OC[C@]12CC[C@@H](C(=C)C)C1C1CCC3[C@@]4(C)CC[C@H](O)C(C)(C)C4CC[C@@]3(C)[C@]1(C)CC2 (stereo partly shown) [2a]	4.863
C#CC1(NC(=O)CCC(=O)OC[C@]23CC[C@@H](C(=C)C)C2C2CCC4[C@@]5(C)CC[C@H](O)C(C)(C)C5CC[C@@]4(C)[C@]2(C)CC3)CCCCC1 (stereo partly shown) [2e]	6.027
C#CCNC(=O)C(C)=CC(=O)OCC12CCC(C(=C)C)C1C1CCC3C4(C)CCC(O)C(C)(C)C4CCC3(C)C1(C)CC2 (stereo not shown) [3a]	5.326
C=C(C)C1CCC2(COC(=O)C=C(C)C(=O)N3CCOCC3)CCC3(C)C(CCC4C5(C)CCC(O)C(C)(C)C5CCC43C)C12 (stereo not shown) [3b]	5.086
C#CC1(NC(=O)C(C)=CC(=O)OCC23CCC(C(=C)C)C2C2CCC4C5(C)CCC(O)C(C)(C)C5CCC4(C)C2(C)CC3)CCCCC1 (stereo not shown) [3e]	6.098
C=C(C)[C@@H]1CC[C@]2(COC(=O)CCCC(=O)N3CCOCC3)CC[C@]3(C)C(CCC4[C@@]5(C)CC[C@H](O)C(C)(C)C5CC[C@]43C)C12 (stereo partly shown) [4b]	4.961
C=C(C)[C@@H]1CC[C@]2(COC(=O)CCCC(=O)N3CCSCC3)CC[C@]3(C)C(CCC4[C@@]5(C)CC[C@H](O)C(C)(C)C5CC[C@]43C)C12 (stereo partly shown) [4d]	5.008

tested on: A549 cell line; assay: Antiproliferative activity, SRB assay, A549 lung carcinoma cells; conditions: Homo sapiens, A549, 72 h, read-out: Cytotoxicity IC50 against A549 cell line

SMILES	IC50 [µM]
C#CCNC(=O)CCC(=O)OC[C@]12CC[C@@H](C(=C)C)C1C1CCC3[C@@]4(C)CC[C@H](O)C(C)(C)C4CC[C@@]3(C)[C@]1(C)CC2 (stereo partly shown) [2a]	19.2
C=C(C)C1CCC2(COC(=O)C=C(C)C(=O)N3CCOCC3)CCC3(C)C(CCC4C5(C)CCC(O)C(C)(C)C5CCC43C)C12 (stereo not shown) [3b]	7.42
C=C(C)[C@@H]1CC[C@]2(COC(=O)CCCC(=O)N3CCOCC3)CC[C@]3(C)C(CCC4[C@@]5(C)CC[C@H](O)C(C)(C)C5CC[C@]43C)C12 (stereo partly shown) [4b]	8.47
C=C(C)[C@@H]1CC[C@]2(COC(=O)CCCC(=O)N3CCSCC3)CC[C@]3(C)C(CCC4[C@@]5(C)CC[C@H](O)C(C)(C)C5CC[C@]43C)C12 (stereo partly shown) [4d]	40.2

same assay, conditions: IC50 BALB/3T3 / IC50 A549

SMILES	Calculated Selectivity Index SI, A549
C#CCNC(=O)CCC(=O)OC[C@]12CC[C@@H](C(=C)C)C1C1CCC3[C@@]4(C)CC[C@H](O)C(C)(C)C4CC[C@@]3(C)[C@]1(C)CC2 (stereo partly shown) [2a]	0.2
C=C(C)C1CCC2(COC(=O)C=C(C)C(=O)N3CCOCC3)CCC3(C)C(CCC4C5(C)CCC(O)C(C)(C)C5CCC43C)C12 (stereo not shown) [3b]	3.3
C=C(C)[C@@H]1CC[C@]2(COC(=O)CCCC(=O)N3CCOCC3)CC[C@]3(C)C(CCC4[C@@]5(C)CC[C@H](O)C(C)(C)C5CC[C@]43C)C12 (stereo partly shown) [4b]	4.3
C=C(C)[C@@H]1CC[C@]2(COC(=O)CCCC(=O)N3CCSCC3)CC[C@]3(C)C(CCC4[C@@]5(C)CC[C@H](O)C(C)(C)C5CC[C@]43C)C12 (stereo partly shown) [4d]	1.2

tested on: MCF-7 cell line; assay: Antiproliferative activity, SRB assay, MCF-7 breast carcinoma cells; conditions: Homo sapiens, MCF7, 72 h, read-out: Cytotoxicity IC50 against MCF-7 cell line

SMILES	IC50 [µM]
C#CCNC(=O)CCC(=O)OC[C@]12CC[C@@H](C(=C)C)C1C1CCC3[C@@]4(C)CC[C@H](O)C(C)(C)C4CC[C@@]3(C)[C@]1(C)CC2 (stereo partly shown) [2a]	29.8
C=C(C)C1CCC2(COC(=O)C=C(C)C(=O)N3CCOCC3)CCC3(C)C(CCC4C5(C)CCC(O)C(C)(C)C5CCC43C)C12 (stereo not shown) [3b]	12.3
C=C(C)[C@@H]1CC[C@]2(COC(=O)CCCC(=O)N3CCOCC3)CC[C@]3(C)C(CCC4[C@@]5(C)CC[C@H](O)C(C)(C)C5CC[C@]43C)C12 (stereo partly shown) [4b]	21.6
C=C(C)[C@@H]1CC[C@]2(COC(=O)CCCC(=O)N3CCSCC3)CC[C@]3(C)C(CCC4[C@@]5(C)CC[C@H](O)C(C)(C)C5CC[C@]43C)C12 (stereo partly shown) [4d]	50

same assay, conditions: IC50 BALB/3T3 / IC50 MCF-7

SMILES	Calculated Selectivity Index SI, MCF-7
C#CCNC(=O)CCC(=O)OC[C@]12CC[C@@H](C(=C)C)C1C1CCC3[C@@]4(C)CC[C@H](O)C(C)(C)C4CC[C@@]3(C)[C@]1(C)CC2 (stereo partly shown) [2a]	0.1
C=C(C)C1CCC2(COC(=O)C=C(C)C(=O)N3CCOCC3)CCC3(C)C(CCC4C5(C)CCC(O)C(C)(C)C5CCC43C)C12 (stereo not shown) [3b]	2.0
C=C(C)[C@@H]1CC[C@]2(COC(=O)CCCC(=O)N3CCOCC3)CC[C@]3(C)C(CCC4[C@@]5(C)CC[C@H](O)C(C)(C)C5CC[C@]43C)C12 (stereo partly shown) [4b]	1.7
C=C(C)[C@@H]1CC[C@]2(COC(=O)CCCC(=O)N3CCSCC3)CC[C@]3(C)C(CCC4[C@@]5(C)CC[C@H](O)C(C)(C)C5CC[C@]43C)C12 (stereo partly shown) [4d]	1.0

tested on: PC-3 cell line; assay: Antiproliferative activity, SRB assay, PC-3 prostate carcinoma cells; conditions: +/− summary, IC50 vs betulin 1

SMILES	Antiproliferative Activity, PC-3
C#CCNC(=O)CCC(=O)OC[C@]12CC[C@@H](C(=C)C)C1C1CCC3[C@@]4(C)CC[C@H](O)C(C)(C)C4CC[C@@]3(C)[C@]1(C)CC2 (stereo partly shown) [2a]	+

same assay, conditions: Homo sapiens, PC-3, 72 h, read-out: Cytotoxicity IC50 against PC-3 cell line

SMILES	IC50 [µM]
C#CCNC(=O)CCC(=O)OC[C@]12CC[C@@H](C(=C)C)C1C1CCC3[C@@]4(C)CC[C@H](O)C(C)(C)C4CC[C@@]3(C)[C@]1(C)CC2 (stereo partly shown) [2a]	4.47
C#CCNC(=O)C(C)=CC(=O)OCC12CCC(C(=C)C)C1C1CCC3C4(C)CCC(O)C(C)(C)C4CCC3(C)C1(C)CC2 (stereo not shown) [3a]	15.3
C=C(C)C1CCC2(COC(=O)C=C(C)C(=O)N3CCOCC3)CCC3(C)C(CCC4C5(C)CCC(O)C(C)(C)C5CCC43C)C12 (stereo not shown) [3b]	24.8
C=C(C)[C@@H]1CC[C@]2(COC(=O)CCCC(=O)N3CCOCC3)CC[C@]3(C)C(CCC4[C@@]5(C)CC[C@H](O)C(C)(C)C5CC[C@]43C)C12 (stereo partly shown) [4b]	22.7
C=C(C)[C@@H]1CC[C@]2(COC(=O)CCCC(=O)N3CCSCC3)CC[C@]3(C)C(CCC4[C@@]5(C)CC[C@H](O)C(C)(C)C5CC[C@]43C)C12 (stereo partly shown) [4d]	50

same assay, conditions: IC50 BALB/3T3 / IC50 PC-3

SMILES	Calculated Selectivity Index SI, PC-3
C#CCNC(=O)CCC(=O)OC[C@]12CC[C@@H](C(=C)C)C1C1CCC3[C@@]4(C)CC[C@H](O)C(C)(C)C4CC[C@@]3(C)[C@]1(C)CC2 (stereo partly shown) [2a]	0.7
C=C(C)C1CCC2(COC(=O)C=C(C)C(=O)N3CCOCC3)CCC3(C)C(CCC4C5(C)CCC(O)C(C)(C)C5CCC43C)C12 (stereo not shown) [3b]	1.0
C=C(C)[C@@H]1CC[C@]2(COC(=O)CCCC(=O)N3CCOCC3)CC[C@]3(C)C(CCC4[C@@]5(C)CC[C@H](O)C(C)(C)C5CC[C@]43C)C12 (stereo partly shown) [4b]	1.6
C=C(C)[C@@H]1CC[C@]2(COC(=O)CCCC(=O)N3CCSCC3)CC[C@]3(C)C(CCC4[C@@]5(C)CC[C@H](O)C(C)(C)C5CC[C@]43C)C12 (stereo partly shown) [4d]	1.0
